Measurements published in patent US20260248799A1, “COMBINATIONS OF RETINALDEHYDE DEHYDROGENASE 1 (RALDH1) INHIBITORS AND IMMUNOSTIMULATORS AND METHODS USING SAME” (The Trustees of the University of Pennsylvania, priority 2023, published 2026).

Legend:
[1] = target: T1, Nicotinic Acetylcholine α1, Bungarotoxin (Homo sapiens, UniProt P02708+P07510+Q07001); assay: Safetyscreen: Nicotinic Acetylcholine α1; type: binding; conditions: read-out: % Inh. Nicotinic Acetylcholine α1, Bungarotoxin
T1 construct: Eurofins Cereps Panlabs (contract panel)

[2] = target: T2, Platelet Activating Factor (PAF) (Homo sapiens, UniProt P25105); assay: Safetyscreen: PAF; type: binding; conditions: read-out: % Inh. Platelet Activating Factor (PAF)
T2 construct: Eurofins Cereps Panlabs (contract panel)

[3] = target: T3, Serotonin (5-Hydroxytryptamine) 5-HT2C (Homo sapiens, UniProt P28335); assay: Safetyscreen: 5-HT2C; type: binding; conditions: read-out: % Inh. Serotonin (5-Hydroxytryptamine) 5-HT2C
T3 construct: Eurofins Cereps Panlabs (contract panel)

[4] = test system: murine monocytes from bone marrow; assay: Murine monocyte DC differentiation with SNU398 cells or conditioned media; type: cell-based, mouse; conditions: HCC cells pre-treated
From the text: FIGS. 22A-22E: RALDH1 inhibition blocks RA-mediated effects of HCC on monocyte differentiation. FIGS. 22A-22B: Circulating primary human monocytes from donors (FIG. 22A) or murine monocytes from bone marrow (FIG. 22B) were cocultured with SNU398 (Human HCC) cells or treated with SNU398-conditioned media (CM) in a DC differentiation system (GM-CSF and IL-4). Two-color histograms show the frequencies of DCs (CD11c^+CD1a^+ for human and CD11c^+MHCII^+ for mouse). The presence of SNU398 or its CM suppressed DC differentiation, which is reversed when SNU398 cells are treated with C86. Three or more independent experiments were performed with at least three replicates per experimental group. Unpaired t test, two-tailed. FIG. 22C: Huh7 (human HCC) cells were subcutaneously injected into flanks of NU/J mice. 12 days later the tumor size was about 50 mm^3 and C86 or vehicle treatment (10 mg/kg, i.p, daily injection) was started. […] The frequencies of the host (murine) DCs (CD45^+F4/80^−CD11C^+MHCII-high) and macrophages (CD45^+F4/80^+) are quantified in a bar graph. […] Shown are the representative FCM plot (histogram) and DC quantification (bar graph). […]
Monocytes were isolated from bone marrow of C57BL/6 mice using the Mouse BM Monocyte Isolation Kit (Miltenyi Biotec) according to manufacturer's instructions. Purity of monocyte was assessed by flow cytometry using CD11b, Ly6C, and Ly6G. […]

T3 sequence (P28335 33-458): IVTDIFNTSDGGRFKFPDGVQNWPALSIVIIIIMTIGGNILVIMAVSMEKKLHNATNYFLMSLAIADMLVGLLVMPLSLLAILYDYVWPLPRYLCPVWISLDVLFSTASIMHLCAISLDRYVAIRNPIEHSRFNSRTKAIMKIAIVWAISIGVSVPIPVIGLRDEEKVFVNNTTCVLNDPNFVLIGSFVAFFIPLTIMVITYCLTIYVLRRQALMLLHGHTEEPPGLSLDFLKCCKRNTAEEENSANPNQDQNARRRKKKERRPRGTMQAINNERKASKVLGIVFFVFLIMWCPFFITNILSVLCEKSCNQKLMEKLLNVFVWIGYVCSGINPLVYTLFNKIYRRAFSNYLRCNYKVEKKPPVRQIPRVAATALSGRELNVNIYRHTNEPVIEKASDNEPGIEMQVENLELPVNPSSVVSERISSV
T1 sequence (P11230 24-501): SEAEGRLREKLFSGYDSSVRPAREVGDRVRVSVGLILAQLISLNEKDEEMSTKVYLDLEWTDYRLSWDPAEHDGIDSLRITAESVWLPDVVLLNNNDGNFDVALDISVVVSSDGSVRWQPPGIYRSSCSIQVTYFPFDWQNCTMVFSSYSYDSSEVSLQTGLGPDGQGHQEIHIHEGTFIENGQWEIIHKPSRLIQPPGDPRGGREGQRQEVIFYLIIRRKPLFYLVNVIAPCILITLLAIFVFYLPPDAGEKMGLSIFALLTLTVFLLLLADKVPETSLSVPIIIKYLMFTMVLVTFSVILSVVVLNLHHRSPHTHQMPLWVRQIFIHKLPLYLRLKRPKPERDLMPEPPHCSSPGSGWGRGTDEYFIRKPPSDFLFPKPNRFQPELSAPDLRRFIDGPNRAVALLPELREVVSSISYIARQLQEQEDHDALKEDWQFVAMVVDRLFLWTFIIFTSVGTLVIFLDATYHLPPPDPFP
T1 sequence (P02708 21-457): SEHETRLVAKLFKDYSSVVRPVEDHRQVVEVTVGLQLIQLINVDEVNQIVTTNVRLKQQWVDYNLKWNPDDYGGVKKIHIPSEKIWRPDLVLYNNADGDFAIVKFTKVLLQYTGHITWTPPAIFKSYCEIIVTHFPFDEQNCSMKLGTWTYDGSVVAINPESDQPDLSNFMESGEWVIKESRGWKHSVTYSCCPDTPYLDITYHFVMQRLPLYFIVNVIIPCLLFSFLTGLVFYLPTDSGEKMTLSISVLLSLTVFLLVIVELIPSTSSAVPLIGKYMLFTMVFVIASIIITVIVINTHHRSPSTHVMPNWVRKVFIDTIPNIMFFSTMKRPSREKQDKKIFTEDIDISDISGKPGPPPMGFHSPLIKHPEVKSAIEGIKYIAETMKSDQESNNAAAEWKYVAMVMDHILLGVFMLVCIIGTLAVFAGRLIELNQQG
T1 sequence (Q07001 22-517): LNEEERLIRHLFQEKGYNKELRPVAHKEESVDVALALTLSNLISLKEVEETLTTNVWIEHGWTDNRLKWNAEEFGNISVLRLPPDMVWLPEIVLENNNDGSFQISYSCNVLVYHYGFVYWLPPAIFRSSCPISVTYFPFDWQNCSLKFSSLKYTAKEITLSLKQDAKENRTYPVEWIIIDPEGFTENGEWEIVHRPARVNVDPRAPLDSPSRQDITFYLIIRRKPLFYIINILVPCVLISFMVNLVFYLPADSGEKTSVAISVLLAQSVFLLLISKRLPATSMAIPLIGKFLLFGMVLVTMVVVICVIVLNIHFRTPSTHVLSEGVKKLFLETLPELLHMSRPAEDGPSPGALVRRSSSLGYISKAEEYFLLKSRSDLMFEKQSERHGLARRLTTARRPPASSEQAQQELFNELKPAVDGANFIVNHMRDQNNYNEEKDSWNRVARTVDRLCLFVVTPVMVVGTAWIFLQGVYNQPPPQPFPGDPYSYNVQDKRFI
T1 sequence (P07510 23-517): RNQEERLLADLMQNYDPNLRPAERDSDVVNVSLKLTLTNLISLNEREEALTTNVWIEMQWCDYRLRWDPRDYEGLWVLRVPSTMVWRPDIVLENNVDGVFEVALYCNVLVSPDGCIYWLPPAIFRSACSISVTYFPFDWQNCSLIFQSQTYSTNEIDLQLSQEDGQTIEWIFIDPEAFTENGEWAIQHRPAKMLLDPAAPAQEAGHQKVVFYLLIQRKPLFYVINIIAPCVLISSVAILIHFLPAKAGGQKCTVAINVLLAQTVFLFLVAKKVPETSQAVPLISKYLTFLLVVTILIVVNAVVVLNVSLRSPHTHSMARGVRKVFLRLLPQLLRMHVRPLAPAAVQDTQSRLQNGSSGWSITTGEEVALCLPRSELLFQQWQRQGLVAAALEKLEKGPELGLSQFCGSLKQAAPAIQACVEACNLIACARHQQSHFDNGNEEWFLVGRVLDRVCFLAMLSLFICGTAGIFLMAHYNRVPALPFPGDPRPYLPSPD
T2 sequence (P25105 whole entry): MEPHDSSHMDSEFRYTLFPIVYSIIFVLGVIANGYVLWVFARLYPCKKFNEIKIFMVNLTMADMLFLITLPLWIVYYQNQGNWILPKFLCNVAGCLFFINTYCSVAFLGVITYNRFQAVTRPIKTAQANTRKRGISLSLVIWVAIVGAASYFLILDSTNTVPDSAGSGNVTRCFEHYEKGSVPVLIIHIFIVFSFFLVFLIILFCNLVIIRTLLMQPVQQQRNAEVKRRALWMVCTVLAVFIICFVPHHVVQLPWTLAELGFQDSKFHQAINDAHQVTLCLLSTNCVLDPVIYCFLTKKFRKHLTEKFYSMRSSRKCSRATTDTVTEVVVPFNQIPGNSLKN

Q: What does the source list for `CS(=O)(=O)N1CCN(C(=O)c2cnc3ccc(F)cc3c2N2CCC(C#N)(c3ccccc3)CC2)CC1` [Compound C-86, 1-(6-fluoro-3-(4-(methylsulfonyl)piperazine-1-carbonyl)quinolin-4-yl)-4-phenylpiperidine-4-carbonitrile]?
A: inhibition at 10 µM [1]: 2%; inhibition at 10 µM [2]: 32%; inhibition at 10 µM [3]: 22%; suppression of DC differentiation by HCC cells or CM [4]: reversed
